Experimental data as given in patent US12194021B2, “Modified herbal compositions for neuromodulation” (University of Southern California, priority 2021, dated 2025).
Marks after values point to notes of the source that are not given here.

Columns and labels:
[1] = test system: GABAARs; assay: Whole-cell voltage-clamped recordings from hippocampal DGCs in slices (Itonic, mIPSCs); assay type: cell-based, rats; settings: for GABAergic Itonic: basal Itonic 20 pA
Text: 2) Whole-Cell Patch-Clamp Recordings from Brain Slices. Transverse slices (400 lm) of dorsal hippocampus were obtained from wt and TG-SwDI mice (male, 20 months old) using a vibratome (VT 100; Technical Products International). Slices were perfused continuously with artificial CSF (ACSF) composed of the following (in mM): 125 NaCl, 2.5 KCl, 2 CaCl2, 2 MgCl2, 26 NaHCO3, and 10 D-glucose. The ACSF was bubbled continuously with 95% O2/5% CO2 to ensure adequate oxygenation of slices and a pH of 7.4 and kept at 34±0.5° C. for perfusion. TTX (0.5 μM), APV (40 μM), CNQX (10 μM), and CGP54626 (1 μM, GABABR antagonist) were added to ACSF to pharmacologically isolate GABAAR-mediated mIPSCs. Patch electrodes were filled with internal solution containing the following (in mM): 137 CsCl, 2 MgCl2, 1 CaCl2, 11 EGTA, 10 HEPES, and 3 ATP, pH adjusted to 7.30 with CsOH. Recordings targeted dentate gyms granule cells (DGCs) of hippocampal slices. Voltage-clamp whole-cell recording was performed using a patch clamp amplifier 3) EPM: All animals were tested anxiety levels on EPM. Animals were placed on the central area of the maze, tested for 5 min and video recorded. The following measures were scored: number of entries into open arms, closed arms, or center platform and time spent in each of these areas. Data were reported as % of number of entries in arms, % of time spent in different entries, and number of total entries.
To evaluate whether DHM-Piperidine Complex (D-P) can still potentiate GABAARs, whole-cell voltage-clamped recordings from hippocampal DGCs in slices were performed to test D-P and compared with DHM effects on GABAergic tonic current (Itonic) and miniature inhibitory postsynaptic currents (mIPSCs). […] Compared with DHM enhancing GABAergic Itonic from 20 pA (basal Itonic)→28 pA→31 pA→52 pA→55 pA, D-P enhancing GABAergic Itonic from 20 pA (basal Itonic)→35 pA→42 pA →65 pA→70 pA (Table 1).

[2] = Anecdotal test of effects on sleep
Experimental: We did an Anecdotal Test of the Effects of DHM on Sleep. […] They were given combination-formula (Comb-D, 1 serving size), DHM (250 mg), or melatonin (10 mg). After a week, we started collecting their reported sleep duration.

[3] = test system: gephyrin; settings: previously reported (Liang et al., 2014); cited from earlier work
[4] = test system: mice; assay: Elevated plus maze (EPM), anxiolytic effect of combination form; assay type: in vivo; settings: 45 min after oral administration, comb 0.5, 1, 2 serving size, diazepam 2 mg/kg
Experimental: Alternatively, the elevated plus maze for mice can consist of two opposing open (24×8 cm) and two enclosed arms (24×8×25 cm) connected by a central platform forming the shape of a plus sign. The dimensions of the central field which connects the open and closed arms are 8×8 cm. The plus maze was elevated to a height of 50 cm. Each mouse was immediately placed in the central square of the apparatus with the head facing one of the closed arms. Mice behavior during 5 min was observed and recorded by means of a video camera (Canon Digital, Japan), which was fixed to the wall above the elevated plus maze. In this test, the following parameters were detected and calculated: the number of entries (open arm entries and closed arm entries), % of open arm entries, and % of time spent in open arms.
Anxiolytic effect evaluation of combination form (comb). A characteristic of the anxiolytic effects of comb (0.5, 1, and 2 serving size) was evaluated by elevated plus maze (EPM) tests (Table 3; FIG. 6). The EPM is considered an etiologically valid assessment of anxiolytic/anxiety in rodents because it uses natural stimuli (fear of a novel, brightly lit open space, and fear of balancing on a relatively narrow, raised platform) to determine anxiety-like behavior in animals. Anxiolytics are known to exert their pharmacological action by causing an increase in GABAergic neurotransmission in the brain.
Statistical analysis: one-way ANOVA, followed by Holm-Sidak post hoc comparison. […] Data were expressed as the means ±SEM, (n=7/group) percentage of open arm entries or of time spent on open arms in mice given a 5-min test, 45 min after oral administration of comb (0.5, 1, 2 serving size), or vehicle.

In the case of `O=C1c2c(O)cc(O)cc2O[C@H](c2cc(O)c(O)c(O)c2)[C@H]1O` [DHM, dihydromyricetin, reference compound], the “Itonic, percent in brackets (increase over basal)” value ([1]; 0.1 μM) is reported as “(40%)*”, the “mIPSCs (area potentiated)” value ([1]; 0.1 μM) is reported as 5.0% and the “GABAergic Itonic” value ([1]; 0.1 μM) is reported as 28 pA. The “Itonic, percent in brackets (increase over basal)” value ([1]; 0.3 μM) was “(55%)*”, the “mIPSCs (area potentiated)” value ([1]; 0.3 μM) was 13.3%* and the “GABAergic Itonic” value ([1]; 0.3 μM) was 31 pA. For the same molecule, the “Itonic, percent in brackets (increase over basal)” value ([1]; 1 μM) was “(160%)*”, the “mIPSCs (area potentiated)” value ([1]; 1 μM) was 58.3%* and the “GABAergic Itonic” value ([1]; 1 μM) was 52 pA. The “Itonic, percent in brackets (increase over basal)” value ([1]; 10 μM) was “(175%)*”, the “mIPSCs (area potentiated)” value ([1]; 10 μM) was 53.3%* and the “GABAergic Itonic” value ([1]; 10 μM) was 55 pA. For the same molecule, the “sleep duration (average)” value ([2]; 250 mg oral daily) was 5.5±0.65, the “start of improvement of sleep” value ([2]; 250 mg oral daily) was 1 to 7 days and the “dependence after finishing three-month test” value [2] was “without dependence”. For the same molecule, the “GABAergic inhibitory transmission / gephyrin in TG mouse models” value [3] was “restores impaired GABAergic inhibitory transmission”.
For `CN1C(=O)CN=C(c2ccccc2)c2cc(Cl)ccc21` [diazepam], the “number of closed arm entries” value [4] was “little effect”, the “total number of arm entries” value [4] was “significantly increased” and the “percentage of open arm entries” value ([4]; p<0.01) was “significantly elevated”.
With `COc1ccc2[nH]cc(CCNC(C)=O)c2c1` [melatonin] the “complaints (discomfort)” value ([2]; 10 mg oral daily) was “dizziness on the second day, loss of energy, and other feelings of discomfort”, the “time to show improvement in sleep” value ([2]; 10 mg oral daily) was “took a month” and the “sleep duration (average)” value ([2]; 10 mg oral daily, in 40% attendees) was 4.3 ± 0.9 h. For the same molecule, the “dependence after finishing three-month test” value [2] was “suffered withdrawal from the test”.
